In patent US20230174576A1, “BETA-STRAND BRIDGE PEPTIDE” (Xeno-Interface Inc., priority 2020, published 2023):

System: HeLa cells
Assay: Cell membrane permeability assay, evaluation by FACS
Format: cell-based
Conditions: FITC-labeled peptide 0.1 μM, 37° C.
Experimental: HeLa cells are grown in DMEM containing 10% fetal bovine serum and penicillin/streptomycin, treated with trypsin, washed twice with medium using a centrifuge, and seeded into multi-well plates for overnight incubation. FITC-labeled peptides are added to the cells at 37° C. and the cells are incubated at 37° C. The cells are washed twice with medium and twice with PBS, and treated with trypsin at 37° C. HeLa cells are collected and centrifuged, washed twice with medium and twice with PBS, and PBS containing propidium iodide is added to the cell. The cell membrane permeability of the peptides is quantitatively analyzed by FACS.
(Evaluation of Cell Membrane Permeability by FACS)

Ac—W I F [K] H R—NH2 [WT]
Mean: FITC-A: 3192
